Measurements as given in patent publication US20090197932A1, “IMIDAZOLINYLMETHYL ARYL SULFONAMIDE” (priority 2008, published 2009).

Legend:
alpha-1A adrenoceptors = molecular target: T1, alpha-1A adrenoceptors (Homo sapiens, UniProt P35348); test: alpha-1A adrenoceptor partial agonist activity (intrinsic activity and pEC50)
T1 sequence (P35348 1-466): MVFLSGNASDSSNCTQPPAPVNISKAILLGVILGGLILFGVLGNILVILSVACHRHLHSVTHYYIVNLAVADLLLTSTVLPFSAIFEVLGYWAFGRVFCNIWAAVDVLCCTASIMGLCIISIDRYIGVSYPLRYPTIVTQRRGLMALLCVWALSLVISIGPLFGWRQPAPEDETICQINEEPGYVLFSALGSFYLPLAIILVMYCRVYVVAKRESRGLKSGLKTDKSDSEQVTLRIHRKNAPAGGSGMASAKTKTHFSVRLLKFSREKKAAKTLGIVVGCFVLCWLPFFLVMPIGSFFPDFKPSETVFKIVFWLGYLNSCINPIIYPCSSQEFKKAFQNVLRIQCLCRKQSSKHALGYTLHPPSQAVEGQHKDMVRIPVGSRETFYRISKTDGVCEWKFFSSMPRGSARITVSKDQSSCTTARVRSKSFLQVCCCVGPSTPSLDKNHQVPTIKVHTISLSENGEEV

[1] = tested on: Female, Dutch Belted rabbits; test: Anesthetized rabbit model: change in IUP and MAP, slope of IUP response; format: in vivo; details: i.v.
Method: In general, IUP is the intraurethral pressure and is measured as the 2 minute mean from the first peak of the urethral response (FIG. 1). MAP is the mean arterial blood pressure and is measured as the average blood pressure during the 2 minute section where IUP is measured. The durability is the slope of the IUP response in mmHg/min and is calculated immediately after the 2 minute IUP response for 5 minutes (2-7 minutes post the first peak) for the top 3 doses.
Surgery: Female, Dutch Belted rabbits (1.20-2.0 kg, Myrtle's Rabbitry, Tenn.) were anesthetized with isoflurane (3.0% at 2 to 4 L/min) and urethane (1.5 grams/kg, s.c.). In preparation for surgery, the rabbits were shaved, scrubbed (i.e., perineal area, ventral neck, and ventral, caudal surface of the abdomen) and were administered Ringers Lactate Solution (s.c.) to maintain fluids. […]
Experiment: The arterial cannula was connected to a P23XL, pressure transducer (Grass Technologies, West Warwick, R.I.) and the arterial pressure transducer and Unisensor urethral transducer catheter were connected to an Gould 13-6615-50 amplifier (Data Sciences International, St. Paul, Minn.) and Gould TA6000 recorder (Data Sciences International, St. Paul, Minn.) in parallel. All data was analyzed using Power Lab Chart version 5.0.2 (ADInstruments, Colorado Springs, Colo.) data acquisition system. […]
Measurements: The change in IUP and MAP from baseline were measured as well as the slope of the IUP response. MAP was first calculated according to the following formula, where Pd is diastolic pressure and Ps is systolic pressure: MAP=Pd+1/3(Ps−Pd). Pre-dose baseline values for IUP and MAP were assessed during a 2 min period just prior to vehicle or test compound administration. Post-dose values for IUP or MAP were determined during a 2 min period at the first peak in the IUP tracing following vehicle or test compound administration. The change in IUP and MAP induced by vehicle or test compound were then calculated by subtracting the pre-dose value from the post-dose value. […]

[2] = tested on: Female Yucatan Micro-Swine; test: Conscious pig model: IUP, MAP and HR during infusion; format: in vivo; details: infusion via ear vein for two hours
Method: Sling Training: Female Yucatan Micro-Swine were trained to stay in a sling for up to 4 hours. Swine were exposed to progressively longer sling durations per IACUC sling-training guideline.
Surgical Instrumentation: Female Yucatan Micro-swine were instrumented with a telemetry device with both pressure and ECG monitoring capabilities (Data Sciences International St Paul Minn.). In addition, a Bardport low profile titanium VAP was placed subcutanteously for blood sampling. All devices were implanted by the surgical veterinarian at Roche Palo Alto. Briefly, the telemetry probe body was placed subcutaneously in the cervical region. The intra-arterial pressure catheter was advanced via the superficial cervical artery into the subclavian artery for blood pressure measurement. […]
Experiment: After the swine was fully awake and stable (usually approximately 1 hour post wake up), baseline blood pressure, IUP, and heart rate parameters were determined. […]
Data Generating and Analysis Systems: Cardiovascular readings were generated by the TL11M3-D70-PCP (Data Sciences International, St. Paul, Minn.) telemetry device and associated hardware. […] IUP was monitored by a solid state catheter connected to a TA6000 Polygraph (Data Sciences International, St. Paul, Minn.). […]

## CS(=O)(=O)Nc1ccc(CC2=NCCN2)c(Br)c1Cl [Formula I, N-[3-Bromo-2-chloro-4-(4,5-dihydro-1H-imidazol-2-ylmethyl)-phenyl]-methanesulfonamide]
alpha-1A adrenoceptors; ideally between 0.35 to 0.60
  intrinsic activity, or efficacy, as a partial agonist: 0.38
alpha-1A adrenoceptors; read-out: affinity, or pEC50 value (converted)
  EC50: 251 nM
[1]
  maximum increase in MAP: 9.75 mmHg
[1]; at the 10 mmHg change in IUP level (ED10 of MAP/ED10 of IUP)
  selectivity for enhancement of intraurethral pressure (IUP) over blood pressure (MAP): 38 fold
[1]; slope of IUP response 2-7 minutes post the first peak, top 3 doses
  durability of IUP response over time: increased durability of IUP response over time
[2]
  IUP durability: exceptional IUP durability
